# According to US9061030B2, “sGC stimulators” (IRONWOOD PHARMACEUTICALS, INC., priority 2010, dated 2015):
# Molecular target: T1, Human soluble guanylate cyclase enzyme (hsGC) (Homo sapiens, UniProt Q02108+Q02153)
# T1 construct: purchased Enzo Inc. ALX-201-177
# T1 sequence (Q02153 1-619): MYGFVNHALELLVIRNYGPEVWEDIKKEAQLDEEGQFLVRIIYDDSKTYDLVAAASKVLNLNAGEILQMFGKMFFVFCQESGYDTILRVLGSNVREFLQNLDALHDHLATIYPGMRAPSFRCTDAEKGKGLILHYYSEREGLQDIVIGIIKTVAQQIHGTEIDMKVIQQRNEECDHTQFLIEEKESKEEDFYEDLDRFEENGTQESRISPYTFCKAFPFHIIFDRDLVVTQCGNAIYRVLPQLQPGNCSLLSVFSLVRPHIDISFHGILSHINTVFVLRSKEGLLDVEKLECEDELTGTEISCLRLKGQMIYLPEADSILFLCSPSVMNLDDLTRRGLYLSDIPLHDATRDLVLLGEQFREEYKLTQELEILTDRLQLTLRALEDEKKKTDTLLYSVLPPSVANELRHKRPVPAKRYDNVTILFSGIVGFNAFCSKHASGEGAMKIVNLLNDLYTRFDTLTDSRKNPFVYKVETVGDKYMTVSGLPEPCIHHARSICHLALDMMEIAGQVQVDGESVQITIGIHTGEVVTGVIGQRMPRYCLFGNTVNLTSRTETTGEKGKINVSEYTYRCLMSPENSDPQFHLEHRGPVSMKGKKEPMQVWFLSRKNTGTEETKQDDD
# T1 sequence (Q02108 1-690): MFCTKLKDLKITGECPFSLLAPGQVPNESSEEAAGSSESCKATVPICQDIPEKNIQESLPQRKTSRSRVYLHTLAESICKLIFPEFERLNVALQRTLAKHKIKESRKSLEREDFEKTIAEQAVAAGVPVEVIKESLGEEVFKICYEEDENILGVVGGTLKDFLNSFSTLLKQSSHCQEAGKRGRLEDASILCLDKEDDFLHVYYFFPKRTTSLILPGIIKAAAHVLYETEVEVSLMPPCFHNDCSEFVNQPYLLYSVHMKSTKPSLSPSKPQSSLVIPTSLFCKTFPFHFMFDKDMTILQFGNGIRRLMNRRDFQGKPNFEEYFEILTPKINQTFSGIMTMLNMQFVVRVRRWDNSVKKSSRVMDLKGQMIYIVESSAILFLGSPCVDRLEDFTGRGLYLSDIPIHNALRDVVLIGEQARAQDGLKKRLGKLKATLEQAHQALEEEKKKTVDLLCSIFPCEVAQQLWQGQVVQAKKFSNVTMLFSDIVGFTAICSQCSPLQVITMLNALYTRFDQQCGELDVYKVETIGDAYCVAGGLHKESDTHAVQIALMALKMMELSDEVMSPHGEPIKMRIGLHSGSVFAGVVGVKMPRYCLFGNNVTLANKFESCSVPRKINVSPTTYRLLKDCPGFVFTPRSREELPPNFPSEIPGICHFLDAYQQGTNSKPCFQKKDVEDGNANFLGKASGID
# Assay: Purified human sGC enzyme activity assay (with or without SNP)
# Type: biochemical
# Settings: for sGC Enzyme Activity Increase at 30 μM with SNP / sGC Enzyme Activity Increase at 30 μM without SNP: 30 μM compound
# Summary of the method: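 Purified human sGC (5 ng) incubated 30 min at 37° C with compound at 10 or 30 μM, 300 μM GTP, 2 mM MgCl2 and 1 mM IBMX at pH 8.0, with or without 1 μM SNP. cGMP formed was quantified against a standard curve. Results are given as fold-change in specific activity over DMSO (or DMSO+SNP) control.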
# [1] = 1 μM SNP, specific activity vs DMSO and SNP
# [2] = without SNP, specific activity vs DMSO control
Structure (SMILES),"sGC Enzyme Activity Increase at 10 μM with SNP (10 μM compound, 1 μM SNP, specific activity vs DMSO and SNP)","sGC Enzyme Activity Increase at 10 μM without SNP (10 μM compound, without SNP, specific activity vs DMSO control)",sGC Enzyme Activity Increase at 30 μM with SNP [1],sGC Enzyme Activity Increase at 30 μM without SNP [2]
Fc1ccccc1Cn1nc(-c2ccccn2)nc1-c1ncco1 [Compound I-6],–,–,D (D = 5 to <10 fold increase),D (D = 5 to <10 fold increase)
"Fc1ccccc1Cn1nc(-c2ccccn2)nc1-c1cocn1 [Compound I-12, 4-(1-(2-fluorobenzyl)-3-(pyridin-2-yl)-1H-1,2,4-triazol-5-yl)oxazole]",–,–,E (E = 10 to <20 fold increase),C (C = 2 to <5 fold increase)
Fc1ccc(-c2nc(-c3nccs3)n(Cc3ccccc3F)n2)nc1 [Compound I-38],–,–,E (E = 10 to <20 fold increase),C (C = 2 to <5 fold increase)
Nc1ccnc(-c2nc(-c3nccs3)n(Cc3ccccc3F)n2)c1 [Compound I-44],–,–,F (F = 20 to <50 fold increase),D (D = 5 to <10 fold increase)
"Nc1ccnc(-c2nc(-c3nccs3)n(Cc3ccccc3F)n2)n1 [Compound I-48, 2-(1-(2-fluorobenzyl)-5-(thiazol-2-yl)-1H-1,2,4-triazol-3-yl)pyrimidin-4-amine]",–,–,D (D = 5 to <10 fold increase),C (C = 2 to <5 fold increase)
"Fc1ccccc1Cn1nc(-c2ccccn2)nc1-n1cncn1 [Compound I-50, 2′-(2-fluorobenzyl)-5′-(pyridin-2-yl)-2′H-1,3′-bi(1′,2′,4-triazole)]",–,–,C (C = 2 to <5 fold increase),B (B = 1 to <2 fold increase)
"COC(=O)N(C)c1c(N)nc(-c2nc(-c3nccs3)n(Cc3ccccc3F)n2)nc1N [Compound I-61, methyl 4,6-diamino-2-(1-(2-fluorobenzyl)-5-(thiazol-2-yl)-1H-1,2,4-triazol-3-yl)pyrimidin-5-yl(methyl)carbamate]",–,–,D (D = 5 to <10 fold increase),C (C = 2 to <5 fold increase)

# The next lines start with the values.
"sGC Enzyme Activity Increase at 10 μM with SNP (10 μM compound, 1 μM SNP, specific activity vs DMSO and SNP)","sGC Enzyme Activity Increase at 10 μM without SNP (10 μM compound, without SNP, specific activity vs DMSO control)",sGC Enzyme Activity Increase at 30 μM with SNP [1],sGC Enzyme Activity Increase at 30 μM without SNP [2],Structure (SMILES)
B (B = 1 to <2 fold increase),B (B = 1 to <2 fold increase),C (C = 2 to <5 fold increase),C (C = 2 to <5 fold increase),Fc1ccccc1Cn1nc(-c2ccccn2)nc1-c1ccccn1 [Compound I-1]
–,–,D (D = 5 to <10 fold increase),B (B = 1 to <2 fold increase),Fc1ccccc1Cn1nc(-c2ncccn2)nc1-c1cscn1 [Compound I-3]
–,–,E (E = 10 to <20 fold increase),C (C = 2 to <5 fold increase),Fc1ccccc1Cn1nc(-c2ccccn2)nc1-c1cscn1 [Compound I-4]
–,–,E (E = 10 to <20 fold increase),D (D = 5 to <10 fold increase),Fc1ccccc1Cn1nc(-c2ccccn2)nc1-c1nccs1 [Compound I-25]
–,–,C (C = 2 to <5 fold increase),B (B = 1 to <2 fold increase),Fc1ccccc1Cn1nc(-c2ncccn2)nc1-c1nccs1 [Compound I-30]
–,–,D (D = 5 to <10 fold increase),B (B = 1 to <2 fold increase),Fc1ccccc1Cn1nc(-c2cscn2)nc1-c1nccs1 [Compound I-40]
–,–,E (E = 10 to <20 fold increase),C (C = 2 to <5 fold increase),Fc1ccccc1Cn1nc(-c2nccs2)nc1-c1cscn1 [Compound I-41]
–,–,C (C = 2 to <5 fold increase),B (B = 1 to <2 fold increase),Fc1ccccc1Cn1nc(-c2ncccn2)nc1-c1cocn1 [Compound I-46]
–,–,F (F = 20 to <50 fold increase),D (D = 5 to <10 fold increase),"Nc1ccnc(-c2nc(-c3cscn3)n(Cc3ccccc3F)n2)c1 [Compound I-53, 2-(1-(2-fluorobenzyl)-5-(thiazol-4-yl)-1H-1,2,4-triazol-3-yl)pyridin-4-amine]"
